# Data published in publication PMC12156041, “Design, Synthesis and Antiplasmodial Activities of a Library of Fluorine-Based 3-Benzylmenadiones” (Molecules, 2025).
# “And” between values parts separate entries of the source, which are not always exact repeats. Equal entries are not always repeated. Where two headings read alike, the source gives them in different places.
# What was measured:
# [1] = system: P. falciparum NF54 strain; experiment: P. falciparum NF54 [3H]hypoxanthine incorporation assay, 72 h, 0.5% Albumax; assay type: cell-based
# [2] = system: P. falciparum NF54 strain; experiment: P. falciparum NF54 24 h assay (species shift assay); assay type: cell-based
# [3] = system: P. berghei (GFP ANKA malaria strain); experiment: In vitro efficacy testing with P. berghei, 24 h (species shift assay); assay type: cell-based
# [4] = system: P. falciparum NF54 strain; experiment: Serum shift assay, P. falciparum NF54 72 h in 50% human serum; details: for IC50: read-out: IC50 NF54 72 h, 50% Human Serum; for Serum Shift: 50% human serum versus 0.5% Albumax
# [5] = system: P. berghei GFP ANKA malaria strain; experiment: Drug assay in vivo in P. berghei-infected mice; details: p.o. 4 × 50 mg/kg; for Parasitized RBC over 100: individual mice; for Parasitized RBC over 100 / Parasitized RBC over 100, Avg. / % of Control / Activity (%): day 4; for % of Control: parasitemia; for Activity (%): reduction of parasitemia versus control
# [6] = Thermodynamic aqueous solubility (shake-flask, PBS-10% DMSO); assay type: physicochemical; details: PBS with 10% DMSO, aqueous with cosolvent or surfactant or cyclodextrin, PBS pH 7.4, 10% DMSO, 20 °C, read-out: Thermodynamic aq. Solubility in PBS-10% DMSO
# Description: Thermodynamic Aqueous Solubility: The shake-flask method enabled us to determine the apparent thermodynamic solubilities of the DMSO stock solutions of the compounds. […] The mixture was equilibrated at 20 °C for 24 h. After centrifugation, the supernatant was injected into an HPLC column coupled to an LC-MS apparatus (with UV–Vis detection) in order to determine the compound concentration. […] These solutions were also injected in order to calibrate the concentration determination process. […] Measurements were performed in duplicate.
# [7] = Chromatographic Hydrophobicity Index (CHI) by HPLC; assay type: physicochemical; details: for CHI: Chromatographic Hydrophobicity Index, lipophilicity index; for chromatographic logD: pH 7.4, read-out: log D7.4
# Description: Determination of CHI values: Compound lipophilicity influences permeability and propensity to nonspecific binding to plasma proteins. Although precise, the classical “shake flask” method is not always appropriate for the determination of high hydrophobicity, which can be alternatively measured using the Chromatographic Hydrophobicity Index method. This HPLC-based technique leads to rapid and cheap estimates of partition coefficients. […] A measure of 5 μL was injected onto the HPLC (with UV–Vis detection). […] The measurements were performed in duplicate. […] The CHI is approximately equal to the proportion of acetonitrile in the mobile phase when the compound is eluted from the column.
# [8] = system: P. falciparum NF54 strain; details: cited from earlier work
# [9] = system: rat myoblast cell line (L6 cells); details: cited from earlier work
# P. falciparum strain Dd2 = system: P. falciparum strain Dd2; parameters: method as in doi:10.1002/ejoc.201600144; details: multi-resistant P. falciparum strain Dd2 ref 12; cited from earlier work
# [10] = Plasmodium falciparum, NF54, 72 h
# [11] = Plasmodium falciparum, NF54, 72 h, read-out: IC50 NF54 72 h, 0.5% Albumax, Table 5B, 0.5% Albumax
# [12] = Plasmodium falciparum, NF54, 72 h, read-out: IC50 Pf NF54, 72 h, Table 5A, species shift experiment
# [13] = Plasmodium falciparum, NF54, as stated in text, read-out: IC50 against P. falciparum NF54
# [14] = Plasmodium falciparum, NF54, read-out: IC50 Pf NF54, 24 h assay
# [15] = Plasmodium berghei, read-out: IC50 Pb, P. berghei, 24 h assay
CHI [7],chromatographic logD [7],SMILES,"IC50 [4, 10] [µM]","IC50 [1, 11] [µM]","IC50 [1, 12] [µM]","IC50 [1, 13] [µM]","IC50 [2, 14] [µM]","IC50 [3, 15] [µM]",Parasitized RBC over 100 ([5]; 50 mg/kg),Avg. Mouse Survival [5] [days],"Parasitized RBC over 100, Avg. [5]",% of Control [5] [%],solubility thermodynamic at 24 h [6] [µM],Serum Shift [4],IC50 ([8]; grey line ref 9) [µM],Tox/L6 ([9]; grey line ref 9) [µM],other results
,,CC1=C(Cc2ccc(OC(F)(F)F)cc2)C(=O)c2ccccc2C1=O [A-b-3],0.473,,,,,,,,,,,,,,"IC50 [1, 10]: 0.083 µM; IC50 ([1]; Plasmodium falciparum, NF54, 72 h, read-out: IC50 NF54 72 h, 0.5% Albumax): 0.083 µM; IC50 ([1]; Plasmodium falciparum, NF54, 72 h, read-out: IC50 Pf NF54, 72 h): 0.083 µM; IC50 ([1]; Plasmodium falciparum, NF54, read-out: IC50 against P. falciparum NF54): < 0.1 µM; IC50 ([2]; Plasmodium falciparum, NF54, 24 h, read-out: IC50 Pf NF54, 24 h): 0.223 µM; IC50 ([3]; Plasmodium berghei, 24 h, read-out: IC50 Pb, 24 h): 0.191 µM"
,,"CC1=C(Cc2ccc(F)c(C(F)(F)F)c2)C(=O)c2ccccc2C1=O [A-b-9, 4′-fluoro-3′-trifluoromethyl-benzylmenadione]",0.355,0.059,0.062,< 0.1,0.143,0.149,70.3 and 49.1 and 52.4,4.0,57.27,97.23,0.67 ± 0.01,6.1,,,"IC50 ([1]; Plasmodium falciparum, NF54, 72 h, P. falciparum NF54, 72 h, read-out: IC50): 0.077 µM; Activity (%) [5]: 2.77%"
97,3.75,CC1=C(Cc2ccc(C#N)cc2)C(=O)c2ccccc2C1=O [A-b-10],,,,> 0.2,,,,,,,0.82 ± 0.01,,,,IC50 ([8]; grey line ref 8): 0.374 µM; Tox/L6 ([9]; grey line ref 8): 112.5 µM
106,4.22,COc1ccc(CC2=C(C)C(=O)c3ccccc3C2=O)cc1 [A-b-16],,,,,,,,,,,1.07 ± 0.02,,,,
107,4.26,COc1ccc(OC)c(CC2=C(C)C(=O)c3ccccc3C2=O)c1 [A-b-26],,,,,,,,,,,0.59 ± 0.01,,0.067,158.5,
,,"C[C@H]1[C@H](OC(=O)CCC(=O)O)O[C@@H]2O[C@@]3(C)CC[C@H]4[C@H](C)CC[C@@H]1[C@@]24OO3 [AS, artesunate, reference compound]",0.001,,0.0048,,,0.013,,,,,,,,,
107,4.27,COc1cc(CC2=C(C)C(=O)c3ccccc3C2=O)cc(OC)c1 [B-b-35],,,,< 0.1,,,,,,,0.75 ± 0.14,,0.052,70.3,
,,"CCN(CC)CCCC(C)Nc1ccnc2cc(Cl)ccc12 (stereo not drawn) [CQ, reference compound]",,,,,,,,,,,,,,,"IC50 ([1]; read-out: IC50 NF54 72 h, 0.5% Albumax, Table 5B, 0.5% Albumax): 0.005 µM; IC50 ([1]; read-out: IC50 Pf NF54, 72 h, Table 5A, species shift experiment): 0.011 µM; IC50 ([2]; read-out: IC50 Pf NF54, 24 h, 24 h assay): 0.0049 µM; IC50 ([3]; read-out: IC50 Pb, 24 h, P. berghei, 24 h assay): 0.016 µM; IC50 [4]: 0.0066 µM"
,,CC1=C(Cc2ccc(C(F)(F)F)cc2)C(=O)c2ccc(F)cc2C1=O [Cpnd 7-F-PD],0.377,0.089,0.093,,0.157,0.138,64.7 and 69.0 and 62.2,4.0,65.30,110.87,0.59 ± 0.01,4.2,,,Activity (%) [5]: −10.87%

SMILES,CHI [7],chromatographic logD [7],"IC50 [4, 10] [µM]","IC50 [1, 11] [µM]","IC50 [1, 12] [µM]","IC50 [1, 13] [µM]","IC50 [2, 14] [µM]","IC50 [3, 15] [µM]",Parasitized RBC over 100 ([5]; 50 mg/kg),Avg. Mouse Survival [5] [days],"Parasitized RBC over 100, Avg. [5]",% of Control [5] [%],solubility thermodynamic at 24 h [6] [µM],Serum Shift [4],IC50 ([8]; grey line ref 9) [µM],Tox/L6 ([9]; grey line ref 9) [µM],other results
CC1=C(Cc2c(F)c(F)c(F)c(F)c2F)C(=O)c2ccccc2C1=O [A-b-47],115,4.67,0.324,0.081,0.091,< 0.1,0.184,0.265,65.4 and 62.4 and 72.5,4.0,66.77,113.36,0.33 ± 0.01,4.0,0.06,161.0,Activity (%) [5]: −13.36%
CC1=C(Cc2ccc(C(F)(F)F)cc2)C(=O)c2cc(F)ccc2C1=O [Cpnd 6-F-PD],117,4.75,0.08,0.093,0.12,,0.104,0.17,28.2 and 35.8 and 27.8,7.0,30.60,51.95,0.06 ± 0.01,0.9,0.181,44.7,"Activity (%) ([5]; 50 mg/kg): 48.05%; Activity (%) ([5]; listed as 6-fluoro–plasmodione, 50 mg/kg): 50%; IC50 (P. falciparum strain Dd2): 0.059 ± 0.011 µM"
